Data: the CheMixHub ionic liquid set
± gives the uncertainty stated by the source.

Assay: xn = mol fraction of the nth substance listed
Settings: 298.15 K

Work on CC[NH3+].O=[N+]([O-])[O-] + C[N+](=O)[O-] yielded an electrical conductivity (101 kPa, x1 = 0.0084) of 0.0847 ± 0.0009 S/m, a viscosity (101 kPa, x1 = 0.0084) of 0.671 ± 0.027 mPa·s and an electrical conductivity (101 kPa, x2 = 0) of 2.27 ± 0.023 S/m. It also gave a viscosity (101 kPa, x2 = 0) of 37.5 ± 1.6 mPa·s, an electrical conductivity (101 kPa, x2 = 0.5996) of 2.42 ± 0.026 S/m and a viscosity (101 kPa, x2 = 0.5996) of 5.95 ± 0.25 mPa·s.

Work on CCCC[P+](CCCC)(CCCC)CCCC.F[B-](F)(F)F + C1COCO1 yielded a viscosity (100 kPa, x1 = 0.0007033) of 0.595 ± 0.009 mPa·s, a viscosity (100 kPa, x1 = 0.001051) of 0.6 ± 0.009 mPa·s and a viscosity (100 kPa, x1 = 0.001406) of 0.606 ± 0.009 mPa·s. The viscosity (100 kPa, x1 = 0.001753) was 0.613 ± 0.009 mPa·s, the viscosity (100 kPa, x1 = 0.002107) was 0.62 ± 0.009 mPa·s and the viscosity (100 kPa, x1 = 0.002453) was 0.627 ± 0.009 mPa·s.

Molecule O=P([O-])([O-])O.[Na+].[Na+] + CCCCCCCCCCCC[N+](C)(C)C.[Br-] + O has an electrical conductivity (101 kPa, x2 = 0, x1 = 0.0001802) of 0.1834 ± 0.0004 S/m, an electrical conductivity (101 kPa, x2 = 0, x1 = 0.001799) of 1.203 ± 0.002 S/m and an electrical conductivity (101 kPa, x2 = 3.43e-06, x1 = 0.0001802) of 0.1849 ± 0.0004 S/m. It also gave an electrical conductivity (101 kPa, x2 = 4.01e-06, x1 = 0.001799) of 1.201 ± 0.002 S/m, an electrical conductivity (101 kPa, x2 = 7.22e-06, x1 = 0.0001802) of 0.1863 ± 0.0004 S/m and an electrical conductivity (101 kPa, x2 = 1.095e-05, x1 = 0.001799) of 1.202 ± 0.002 S/m. The electrical conductivity (101 kPa, x2 = 1.245e-05, x1 = 0.0001802) was 0.1888 ± 0.0004 S/m, the electrical conductivity (101 kPa, x2 = 1.967e-05, x1 = 0.0001802) was 0.1919 ± 0.0004 S/m and the electrical conductivity (101 kPa, x2 = 2.007e-05, x1 = 0.001799) was 1.204 ± 0.002 S/m. The electrical conductivity (101 kPa, x2 = 2.851e-05, x1 = 0.0001802) was 0.1958 ± 0.0004 S/m, the electrical conductivity (101 kPa, x2 = 2.882e-05, x1 = 0.001799) was 1.205 ± 0.002 S/m and the electrical conductivity (101 kPa, x2 = 3.717e-05, x1 = 0.0001802) was 0.1997 ± 0.0004 S/m. For the same molecule, the electrical conductivity (101 kPa, x2 = 4.214e-05, x1 = 0.001799) was 1.207 ± 0.002 S/m, the electrical conductivity (101 kPa, x2 = 4.619e-05, x1 = 0.0001802) was 0.2038 ± 0.0004 S/m and the electrical conductivity (101 kPa, x2 = 5.521e-05, x1 = 0.0001802) was 0.2079 ± 0.0004 S/m. For the same molecule, the electrical conductivity (101 kPa, x2 = 5.582e-05, x1 = 0.001799) was 1.209 ± 0.002 S/m, the electrical conductivity (101 kPa, x2 = 6.423e-05, x1 = 0.0001802) was 0.212 ± 0.0004 S/m and the electrical conductivity (101 kPa, x2 = 6.895e-05, x1 = 0.001799) was 1.212 ± 0.002 S/m. It also gave an electrical conductivity (101 kPa, x2 = 7.307e-05, x1 = 0.0001801) of 0.2161 ± 0.0004 S/m, an electrical conductivity (101 kPa, x2 = 8.173e-05, x1 = 0.0001801) of 0.2201 ± 0.0004 S/m and an electrical conductivity (101 kPa, x2 = 8.209e-05, x1 = 0.001799) of 1.215 ± 0.002 S/m. It also gave an electrical conductivity (101 kPa, x2 = 9.056e-05, x1 = 0.0001801) of 0.224 ± 0.0005 S/m, an electrical conductivity (101 kPa, x2 = 9.522e-05, x1 = 0.001799) of 1.218 ± 0.002 S/m and an electrical conductivity (101 kPa, x2 = 9.922e-05, x1 = 0.0001801) of 0.2279 ± 0.0005 S/m. It also gave an electrical conductivity (101 kPa, x2 = 0.0001077, x1 = 0.0001801) of 0.2317 ± 0.0005 S/m, an electrical conductivity (101 kPa, x2 = 0.0001087, x1 = 0.001799) of 1.221 ± 0.003 S/m and an electrical conductivity (101 kPa, x2 = 0.0001165, x1 = 0.0001801) of 0.2356 ± 0.0005 S/m. It also gave an electrical conductivity (101 kPa, x2 = 0.0001218, x1 = 0.001799) of 1.224 ± 0.003 S/m, an electrical conductivity (101 kPa, x2 = 0.000125, x1 = 0.0001801) of 0.2393 ± 0.0005 S/m and an electrical conductivity (101 kPa, x2 = 0.0001335, x1 = 0.0001801) of 0.243 ± 0.0005 S/m. For the same molecule, the electrical conductivity (101 kPa, x2 = 0.0001366, x1 = 0.001799) was 1.228 ± 0.003 S/m, the electrical conductivity (101 kPa, x2 = 0.0001441, x1 = 0.0001801) was 0.2473 ± 0.0005 S/m and the electrical conductivity (101 kPa, x2 = 0.0001519, x1 = 0.001798) was 1.232 ± 0.003 S/m. It also gave an electrical conductivity (101 kPa, x2 = 0.0001524, x1 = 0.0001801) of 0.2509 ± 0.0005 S/m, an electrical conductivity (101 kPa, x2 = 0.0001609, x1 = 0.0001801) of 0.2547 ± 0.0005 S/m and an electrical conductivity (101 kPa, x2 = 0.0001667, x1 = 0.001798) of 1.236 ± 0.003 S/m. The electrical conductivity (101 kPa, x2 = 0.0001694, x1 = 0.0001801) was 0.2586 ± 0.0005 S/m, the electrical conductivity (101 kPa, x2 = 0.0001777, x1 = 0.0001801) was 0.2624 ± 0.0005 S/m and the electrical conductivity (101 kPa, x2 = 0.0001813, x1 = 0.001798) was 1.24 ± 0.01 S/m. For the same molecule, the electrical conductivity (101 kPa, x2 = 0.0001858, x1 = 0.0001801) was 0.2662 ± 0.0005 S/m, the electrical conductivity (101 kPa, x2 = 0.0001937, x1 = 0.0001801) was 0.2697 ± 0.0005 S/m and the electrical conductivity (101 kPa, x2 = 0.0001963, x1 = 0.001798) was 1.243 ± 0.003 S/m. The electrical conductivity (101 kPa, x2 = 0.0002019, x1 = 0.0001801) was 0.2733 ± 0.0005 S/m, the electrical conductivity (101 kPa, x2 = 0.0002103, x1 = 0.0001801) was 0.2774 ± 0.0006 S/m and the electrical conductivity (101 kPa, x2 = 0.0002105, x1 = 0.001798) was 1.246 ± 0.003 S/m. The electrical conductivity (101 kPa, x2 = 0.0002184, x1 = 0.0001801) was 0.2809 ± 0.0006 S/m, the electrical conductivity (101 kPa, x2 = 0.0002245, x1 = 0.001798) was 1.249 ± 0.003 S/m and the electrical conductivity (101 kPa, x2 = 0.000226, x1 = 0.0001801) was 0.2841 ± 0.0006 S/m. For the same molecule, the electrical conductivity (101 kPa, x2 = 0.0002339, x1 = 0.0001801) was 0.2867 ± 0.0006 S/m, the electrical conductivity (101 kPa, x2 = 0.0002387, x1 = 0.001798) was 1.252 ± 0.003 S/m and the electrical conductivity (101 kPa, x2 = 0.0002421, x1 = 0.0001801) was 0.2888 ± 0.0006 S/m. The electrical conductivity (101 kPa, x2 = 0.0002516, x1 = 0.0001801) was 0.2909 ± 0.0006 S/m, the electrical conductivity (101 kPa, x2 = 0.0002524, x1 = 0.001798) was 1.254 ± 0.003 S/m and the electrical conductivity (101 kPa, x2 = 0.0002625, x1 = 0.0001801) was 0.2928 ± 0.0006 S/m. For the same molecule, the electrical conductivity (101 kPa, x2 = 0.0002663, x1 = 0.001798) was 1.257 ± 0.003 S/m, the electrical conductivity (101 kPa, x2 = 0.0002743, x1 = 0.0001801) was 0.2947 ± 0.0006 S/m and the electrical conductivity (101 kPa, x2 = 0.0002801, x1 = 0.001798) was 1.259 ± 0.003 S/m. For the same molecule, the electrical conductivity (101 kPa, x2 = 0.0002882, x1 = 0.0001801) was 0.2967 ± 0.0006 S/m, the electrical conductivity (101 kPa, x2 = 0.0002936, x1 = 0.001798) was 1.262 ± 0.003 S/m and the electrical conductivity (101 kPa, x2 = 0.0003037, x1 = 0.0001801) was 0.2989 ± 0.0006 S/m. It also gave an electrical conductivity (101 kPa, x2 = 0.0003071, x1 = 0.001798) of 1.265 ± 0.003 S/m, an electrical conductivity (101 kPa, x2 = 0.0003189, x1 = 0.0001801) of 0.3011 ± 0.0006 S/m and an electrical conductivity (101 kPa, x2 = 0.0003202, x1 = 0.001798) of 1.268 ± 0.003 S/m. For the same molecule, the electrical conductivity (101 kPa, x2 = 0.0003294, x1 = 0.001798) was 1.27 ± 0.01 S/m and the electrical conductivity (101 kPa, x2 = 0.0003301, x1 = 0.0001801) was 0.3025 ± 0.0006 S/m.
